Earlier results in patent US10294264B2, “Oxysterol-therapeutic agent derivative for bone healing” (Warsaw Orthopedic, Inc., priority 2017, dated 2019).
Read-outs that look alike come from different tables or passages of the source.

How the values were obtained:
[1] = test system: osteoprogenitor cells; details: in vitro
[2] = test system: spine fusion model; details: rat spine fusion model
[3] = test system: spine fusion model; details: rabbit spine fusion model
[4] = test system: Mesenchymal stem cells; details: mesenchymal stem cells treated with compound

SMILES: CCCCCC[C@](C)(O)[C@H]1CC[C@H]2[C@@H]3C[C@H](O)[C@H]4C[C@@H](O)CC[C@]4(C)[C@H]3CC[C@@]21C [OXY133, (3S,5S,6S,8R,9S,10R,13S,14S,17S)-17-((S)-2-hydroxyoctan-2-yl)-10,13-dimethylhexadecahydro-1H-cyclopenta[a]phenanthrene-3,6-diol]
- osteogenic differentiation of osteoprogenitor cells [1]: induces osteogenic differentiation
- bone formation in vivo [2]: robust bone formation
- bone formation in vivo [3]: robust bone formation
- osteoblast differentiation [4]: increased osteoblast differentiation
